Results published in patent US8318782B2, “Mitotic kinesin inhibitor” (Kyowa Hakko Kirin Co., Ltd., priority 2003, dated 2012).

Target: T1, human Eg5 motor domain (Homo sapiens, UniProt P52732)
T1 construct: A plasmid expressing the motor domain of human Eg5 was constructed; made in house; host or cells: Escherichia coli BL21 (DE3)
T1 sequence (P52732 18-359 limits assumed): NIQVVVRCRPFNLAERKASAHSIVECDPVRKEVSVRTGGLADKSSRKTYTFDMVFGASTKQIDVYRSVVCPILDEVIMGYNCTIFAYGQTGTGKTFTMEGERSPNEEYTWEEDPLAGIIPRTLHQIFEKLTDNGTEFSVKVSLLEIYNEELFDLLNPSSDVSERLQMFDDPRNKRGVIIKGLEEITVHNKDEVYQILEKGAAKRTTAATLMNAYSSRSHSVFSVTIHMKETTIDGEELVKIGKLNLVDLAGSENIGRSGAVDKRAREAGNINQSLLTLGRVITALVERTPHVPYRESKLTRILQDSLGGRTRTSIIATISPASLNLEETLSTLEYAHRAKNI
Assay: Eg5 enzyme inhibition test (2) (ATPase activity, Eg5 motor domain)
Type: biochemical
Conditions: human Eg5 motor domain purified sample, 30° C. for 30 minutes, absorbance at 360 nm
Method: A recombinant human Eg5 motor domain protein was prepared by referring to the literature [Biochemistry, Vol. 35, p. […] A plasmid expressing the motor domain of human Eg5 was constructed, and transformed into Escherichia coli BL21 (DE3). The transformant was cultured at 25° C., and when OD600 reached 0.74, isopropyl-β-D-thiogalactoside was added at a final concentration of 0.5 mmol/L. The transformant was further cultured for 4 hours, and then the culture medium was centrifuged to collect the cells. The cells were suspended in a buffer and ultrasonicated, and then the sonicated solution was centrifuged to recover the supernatant. The supernatant was purified by cation exchange column chromatography to obtain a partially-purified sample. Furthermore, the partially purified sample was purified by gel filtration column chromatography to obtain a finally purified sample.
Measurement of the ATPase activity of Eg5 was carried out by referring to the literatures EEMBO Journal, Vol. 13, p. […] Solution A was dispensed into each well of a 96-well plate as 45 μL portions. Solution B was used to serially dilute a test compound. The diluted test compound solutions in a volume of 30 μL were mixed with Solution A added beforehand in each well of the 96-well plate to start the enzymatic reaction. The enzymatic reaction was performed at 30° C. for 30 minutes.

IC50, ≤ 2000 nM:
CC(C)(C)C(=O)NC1=NN(C(=O)C(C)(C)C)C(CNS(C)(=O)=O)(c2ccccc2)S1 (stereo not shown) [Compound 95]
CC(=O)N1N=C(N2CCCC2=O)SC1(CNS(C)(=O)=O)c1ccccc1 (stereo not shown) [Compound 152]
CC(=O)NC1=NN(C(C)=O)C(C)(c2sccc2Cl)S1 (stereo not shown) [Compound 134]
CN(C)CCCS(=O)(=O)NCC1(c2ccccc2)SC(NC(=O)C(C)(C)C)=NN1C(=O)C(C)(C)C (stereo not shown) [Compound 238]
CN(C)CCC1(c2ccccc2)SC(NC(=O)C(C)(C)C)=NN1C(=O)C(C)(C)C (stereo not shown) [Compound 104]
C=CS(=O)(=O)NCC1(c2ccccc2)SC(NC(=O)C(C)(C)C)=NN1C(=O)C(C)(C)C (stereo not shown) [Compound 171]
CC(=O)N1N=C(NC(=O)C(C)(C)C)SC1(CNS(=O)(=O)CCN(C)C)c1ccccc1 (stereo not shown) [Compound 174]
CC(=O)N1N=C(N2CCCCC2=O)SC1(CNS(C)(=O)=O)c1ccccc1 (stereo not shown) [Compound 154]
CCNCCS(=O)(=O)NCC1(c2ccccc2)SC(NC(=O)C(C)(C)C)=NN1C(=O)C(C)(C)C (stereo not shown) [Compound 176]
CC(C)(C)C(=O)NC1=NN(C(=O)C(C)(C)C)C(CCN)(c2ccccc2)S1 (stereo not shown) [Compound 210]
CCS(=O)(=O)NCC1(c2ccccc2)SC(NC(=O)C(C)(C)C)=NN1C(=O)C(C)(C)C (stereo not shown) [Compound 97]
CC(C)(C)C(=O)NC1=NN(C(=O)C(C)(C)C)C(CNS(=O)(=O)CCCN)(c2ccccc2)S1 (stereo not shown) [Compound 221]
CCN(C)CCS(=O)(=O)NCC1(c2ccccc2)SC(NC(=O)C(C)(C)C)=NN1C(=O)C(C)(C)C (stereo not shown) [Compound 264]
CC(C)C(=O)NC1=NN(C(=O)C(C)C)C(CCNS(C)(=O)=O)(c2ccccc2)S1 (stereo not shown) [Compound 100]
CC(C)(C)C(=O)NC1=NN(C(=O)C(C)(C)C)C(CCC(=O)NCCO)(c2ccccc2)S1 (stereo not shown) [Compound 111]
CC(C)(C)C(=O)NC1=NN(C(=O)C(C)(C)C)C(CCC(N)=O)(c2ccccc2)S1 (stereo not shown) [Compound 107]
